US20090209613A1, “Use of allymercaptocaptopril for treating or preventing obesity and obesity related diseases” (Yeda Researc And Development Co. Ltd. at the Weizmann …, priority 2005, published 2009)

Experiments:
[1] = Body weight gain of SHROB rats fed drug-supplemented chow; type: in vivo, rat; conditions: for effect on body weight gain: compared with non-treated control, FIG. 1
Experimental: (§1) Animals: Obese spontaneously […] rats with a naturally occurring knockout of the leptin receptor (SHROB; Koletsky et al., pp. 143-158 in: Sima AAF and Shafrir (eds) Animal Models of Diabetes: A Primer, Harwood, Singapore, 2001) were used. Adult (4-5 months old) male and female SHROB were maintained essentially as described by Velliquette and Emsberger (JPET 307: 1104-1111, 2003). Briefly, animals were housed individually at a constant temperature of 21° C. on a 12:12 hours light/dark cycle. The animals were given ad libitum access to food (Teklad 8664 rat chow) and were maintained for a period of 60 days. The procedures were carried out in accordance with applicable laws and accepted guidelines for animal welfare.
(§2) Either CPSSA or captopril were dissolved in a 20% ethanol solution, chilled on ice, and were then thoroughly mixed with powdered rat chow in equivalent molar amounts of 1.107 and 0.827 gram/kg, respectively.
(§3) Eight SHROB rats (4 males, 4 females) were used in each treatment group. Animals were fed with chow supplemented with either CPSSA or captopril, or with standard (non-supplemented) chow diet, which served as a control. Measurements of body weight, food consumption and blood pressure were conducted 3 times a week for the duration of the experiment.

[2] = Food consumption of SHROB rats fed drug-supplemented chow; type: in vivo, rat; conditions: throughout the experiment, FIG. 2
Experimental: as §1, §2, §3

[3] = Systolic blood pressure of SHROB rats fed drug-supplemented chow; type: in vivo, rat
Experimental: Briefly, animals were housed individually at a constant temperature of 21° C. on a 12:12 hours light/dark cycle. […] The procedures were carried out in accordance with applicable laws and accepted guidelines for animal welfare.
as §3

[4] = in vivo; cited from earlier work
[5] = cited from earlier work
[6] = day 20, drug in chow ad libitum
[7] = day 53, drug in chow ad libitum

C=CCSSC[C@H](C)C(=O)N1CCC[C@H]1C(=O)O [CPSSA, Allylmercaptocaptopril]
effect on body weight gain [1]: effectively prevented body weight gain
average body weight gain [1, 6]: 0.6%
average body weight gain [1, 7]: −0.1%
food uptake [2]: no differences were observed in the food uptake
effect on blood pressure ([3]; FIG. 3): substantially reduced the blood pressure
average systolic blood pressure ([3]; day 14): 165.6
average systolic blood pressure ([3]; day 28): 146.8
average systolic blood pressure ([3]; day 56): 140.3
blood pressure [4]: significantly decreases blood pressure
serum level of insulin [4]: reduces
serum level of triglycerides [4]: reduces
stability in blood or plasma ([5]; blood or plasma of mammals): stable in blood or plasma of mammals
reaction with serum proteins ([5]; serum proteins): reacts very sluggishly with serum proteins

C[C@H](CS)C(=O)N1CCC[C@H]1C(=O)O [captopril]
effect on body weight gain [1]: had no effect on body weight gain
average body weight gain [1, 6]: 7.3%
average body weight gain [1, 7]: 11.8%
food uptake [2]: no differences were observed in the food uptake
average systolic blood pressure ([3]; day 14): 165.5
average systolic blood pressure ([3]; day 28): 159.3
average systolic blood pressure ([3]; day 56): 159.7
